# Where two headings read alike, the source gives them in different places. Numbered stars: 1 amine (or outer) side, 2 acyl side, 3 side chain; on linkers, the order of the positions; unused ones are H or OH. Square brackets hold non-standard residues; d marks the D form. Peptide text beside a SMILES is read from it. (6-OH)Tic = 6-hydroxy-1,2,3,4-tetrahydroisoquinoline-3-carboxylic acid, O=C([C@@H]1Cc2cc(O[*:3])ccc2CN1[*:1])[*:2]; X1 = O=C1[C@@H](N[*:1])Cc2ccccc2CN1CCC(=O)[*:2]; X2 = O=C([C@@H]1Cc2cc(O)ccc2CN1[*:1])[*:2]; Dmt = Cc1cc(O)cc(C)c1C[C@H](N)C(=O)O; Tle = CC(C)(C)[C@H](N)C(=O)O; β3hK = NCCCC[C@H](N)CC(=O)O
# Assays:
# human MOR = molecular target: T1, human MOR (Homo sapiens, UniProt P35372); assay type: biochemical; conditions: in words
# T1 construct: host or cells: CHO (CHO-hMOR)
# human DOR = molecular target: T2, human DOR (Homo sapiens, UniProt P41143); assay: [35S]GTPγS binding assay, CHO-hDOR membranes; assay type: biochemical; conditions: in words
# T2 construct: host or cells: CHO (CHO-hDOR)
# human KOR = molecular target: T3, human KOR (Homo sapiens, UniProt P41145); assay: [35S]GTPγS binding assay, CHO-hKOR membranes; assay type: biochemical; conditions: in words
# T3 construct: host or cells: CHO (CHO-hKOR)
# NTS2 = test system: NTS2; parameters: method as in PMID 27359371; conditions: in words; cited from earlier work
# [1] = cited from earlier work
# human NTS1 [2] = molecular target: T4, human NTS1 (Homo sapiens, UniProt P30989); assay: cell-based; parameters: expressed in transfected cells; host or cells: HEK293 (transfected with PEI)
# human NTS2 receptor [3] = molecular target: T5, human NTS2 receptor (Homo sapiens, UniProt O95665); assay: Competitive radioligand binding ([125I]-NT), 1321N1-hNTS2 membranes; conditions: ratio of Ki values NTS1 vs NTS2
# T5 construct: host or cells: 1321N1 (human astrocytoma)
# human NTS2 receptor [4] = molecular target: T5, human NTS2 receptor; conditions: cited from earlier work; for Ki: human receptor, 1321N1 membranes, read-out: affinity Ki NTS2; for selectivity NTS2/NTS1: ratio of Ki values
# human NTS1 [5] = molecular target: T4, human NTS1; parameters: host or cells: CHO-K1; conditions: CHO membranes, read-out: affinity Ki NTS1; cited from earlier work
# [6] = molecular target: human δ-opioid receptor (human) (UniProt P41143); assay: radioligand binding; competition on membranes (15–20 μg) of CHO cells stably expressing hMOR, hDOR or hKOR; radioligands [3H]DAMGO (hMOR), [3H]diprenorphine (hDOR), [3H]U69,593 (hKOR); 50 mM Tris-HCl pH 7.4, 60 min, 25 °C, filtration; Ki by Cheng and Prusoff
# [7] = molecular target: human μ-opioid receptor (human) (UniProt P35372); assay: as above
# [8] = molecular target: human κ-opioid receptor (human) (UniProt P41145); assay: as above
# [9] = molecular target: human δ-opioid receptor (human) (UniProt P41143)
# [10] = molecular target: human μ-opioid receptor (human) (UniProt P35372)
# [11] = molecular target: human neurotensin 1 receptor (human) (UniProt P30989)
# [12] = molecular target: human κ-opioid receptor (human) (UniProt P41145)
# [13] = molecular target: human neurotensin 2 receptor (human) (UniProt O95665); assay: radioligand binding; competition with [125I]-NT on membranes (15–20 μg) of CHO cells (hNTS1) or 1321N1 astrocytoma cells (hNTS2); binding buffer 10 mM Tris, 1 mM EDTA pH 7.5, peptides diluted with 50 mM Tris-HCl and 0.2% BSA; 60 min, ambient temperature, filtration; Ki by Cheng and Prusoff
# [14] = molecular target: human neurotensin 1 receptor (human) (UniProt P30989); assay: as above
compound,measurement,setting,value
Cc1cc(O)cc(C)c1C[C@H](N)C(=O)N[C@H](CCCCN)C(=O)N[C@@H](Cc1ccccc1)C(=O)N[C@@H](Cc1ccccc1)C(=O)N[C@@H](CCCCN)C(=O)N[C@@H](CCCCN)C(=O)N1CCC[C@H]1C(=O)N[C@@H](Cc1ccccc1)C(=O)N[C@H](C(=O)N[C@@H](CC(C)C)C(=O)O)C(C)(C)C [PK20] (H-[Dmt][dK]FFKKPF[Tle]L-OH),functional profile at the MOR (G protein activation),human MOR,potent full agonist
same,functional profile at the DOR,human DOR,weak partial agonist
same,functional profile at the KOR,human KOR,relatively potent KOR partial agonist
COc1cccc(OC)c1-c1cc(C(=O)NC2(C(=O)O)C3CC4CC(C3)CC2C4)nn1-c1ccnc2cc(Cl)ccc12 (stereo not shown) [SR48692],activity at NTS2 in the FLIPR assay,NTS2,full agonist activity
COc1cccc(OC)c1-c1cc(C(=O)NC2(C(=O)O)C3CC4CC(C3)CC2C4)nn1-c1ccc(C(=O)N(C)CCCN(C)C)cc1C(C)C (stereo not shown) [SR142948a],activity at NTS2 in the FLIPR assay,NTS2,full agonist activity
"Cc1cc(O)cc(C)c1C[C@H](NC(=O)[C@@H]1CCCN1C(=O)[C@H](CCCNC(=N)N)NC(=O)[C@H](CCCNC(=N)N)NC(=O)CCN1Cc2ccccc2C[C@H](NC(=O)[C@@H](CCCNC(=N)N)NC(=O)[C@@H](N)Cc2c(C)cc(O)cc2C)C1=O)C(=O)N[C@H](C(=O)N[C@@H](CC(C)C)C(=O)O)C(C)(C)C [compound 5, H-Dmt-D-Arg-Aba-β-Ala-Arg-Arg-Pro-Dmt-Tle-Leu-OH] (H-[Dmt][dR][X1]RRP[Dmt][Tle]L-OH)",functional profile at the MOR (G protein activation),human MOR,very potent agonists
CC(C)C[C@H](NC(=O)[C@@H](NC(=O)[C@@H]1Cc2cc(O)ccc2CN1C(=O)[C@@H]1CCCN1C(=O)[C@H](CCCCN)NC(=O)C[C@@H](N)CCCCN)C(C)(C)C)C(=O)O [peptide 2] (H-[β3hK]KP[X2][Tle]L-OH),plasma stability t1/2,[1],> 24 h
"Cc1cc(O)cc(C)c1C[C@H](N)C(=O)N[C@H](CCCNC(=N)N)C(=O)N[C@H]1Cc2ccccc2CN(CCC(=O)N[C@@H](CCCNC(=N)N)C(=O)N[C@@H](CCCNC(=N)N)C(=O)N2CCC[C@H]2C(=O)N[C@@H](Cc2ccc(O)cc2)C(=O)N[C@H](C(=O)N[C@@H](CC(C)C)C(=O)O)C(C)(C)C)C1=O [peptide 3, H-Dmt-D-Arg-Aba-β-Ala-Arg-Arg-Pro-Tyr-Tle-Leu-OH] (H-[Dmt][dR][X1]RRPY[Tle]L-OH)",functional profile at the MOR (G protein activation),human MOR,very potent agonists
"Cc1cc(O)cc(C)c1C[C@H](N)C(=O)N[C@H](CCCNC(=N)N)C(=O)N[C@H]1Cc2ccccc2CN(CCC(=O)N[C@@H](CCCNC(=N)N)C(=O)N[C@@H](CCCNC(=N)N)C(=O)N2CCC[C@H]2C(=O)N2Cc3ccc(O)cc3C[C@H]2C(=O)N[C@H](C(=O)N[C@@H](CC(C)C)C(=O)O)C(C)(C)C)C1=O [peptide 9, H-Dmt-D-Arg-Aba-β-Ala-Arg-Arg-Pro-(6-OH)Tic-Tle-Leu-OH] (H-[Dmt][dR][X1]RRP[X2][Tle]L-OH)",functional profile at the MOR (G protein activation),human MOR,very potent agonists
same,EC50,human NTS1 [2],~2000 nM
same,fold decrease in NTS1 activity (EC50) compared to NT(8-13),human NTS1 [2],"13,000 fold"
same,fold decrease in NTS1 activity (EC50) compared to 1,human NTS1 [2]; vs 1,ca. 1000 fold
same,selectivity NTS2/NTS1,human NTS2 receptor [3],> 2700
H-Arg-Arg-Pro-(6-OH)Tic-Tle-Leu-OH (H-RRP[(6-OH)Tic][Tle]L-OH; SMILES CC(C)C[C@H](NC(=O)[C@@H](NC(=O)[C@@H]1Cc2cc(O)ccc2CN1C(=O)[C@@H]1CCCN1C(=O)[C@H](CCCNC(=N)N)NC(=O)[C@@H](N)CCCNC(=N)N)C(C)(C)C)C(=O)O) [compound 15],Ki,human NTS2 receptor [4],132 ± 47 nM
same,Ki,human NTS1 [5],6680 ± 3700 nM
H-Arg-Arg-Pro-(6-OH)Tic-Tle-Leu-OH [compound 15],selectivity NTS2/NTS1,human NTS2 receptor [4],50
H-Arg-Arg-Pro-Dmt-Tle-Leu-OH [compound 14],Ki,human NTS2 receptor [4],3 ± 2 nM
same,selectivity NTS2/NTS1,human NTS2 receptor [4],4.5
same,Ki,human NTS1 [5],13.4 ± 2 nM
H-Arg-Arg-Pro-m-Tyr-Tle-Leu-OH [compound 16],Ki,human NTS2 receptor [4],24 ± 18 nM
same,selectivity NTS2/NTS1,human NTS2 receptor [4],4
same,Ki,human NTS1 [5],93 ± 22 nM
H-β^3hArg-Arg-Pro-Dmt-Tle-Leu-OH [peptide 13],Ki,human NTS2 receptor [4],0.11 ± 0.07 nM
same,selectivity NTS2/NTS1,human NTS2 receptor [4],20.1
same,Ki,human NTS1 [5],2.3 ± 0.2 nM
PK20 (peptide),Ki,[6],46.4 nM
same,Ki,[7],4.13 nM
same,Ki,[8],33.5 nM
same,"DOR [^35S]GTPγS binding, EC50",[9],479 nM
same,"DOR [^35S]GTPγS binding, Emax (% of DPDPE)",[9],78%
same,"MOR [^35S]GTPγS binding, EC50",[10],13.3 nM
same,"MOR [^35S]GTPγS binding, Emax (% of DAMGO)",[10],91%
same,"MOR β-arrestin-2 recruitment, EC50",[10],956 nM
same,"MOR β-arrestin-2 recruitment, Emax (% of DAMGO)",[10],69%
same,"NTS1 Gαq activation (BRET), EC50",[11],19.1 nM
same,"NTS1 Gαq activation (BRET), Emax (% of NT(8-13))",[11],101%
same,"KOR [^35S]GTPγS binding, EC50",[12],47.1 nM
same,"KOR [^35S]GTPγS binding, Emax (% of U69,593)",[12],65%
same,Ki,[13],29.5 nM
same,Ki,[14],188 nM

# — PMC7667639, “Optimized Opioid-Neurotensin Multitarget Peptides: From Design to Structure–Activity Relationship Studies” (Journal of Medicinal Chemistry, 2020)
